The target in assay [1] is human orexin-2 receptor (Homo sapiens (Human), UniProt O43614). In words: Human orexin 2 receptor radioligand binding ([3H]-EMPA competition). Particulars: HEK293 cells stably expressing human orexin-2 receptor; [3H]-EMPA 5 nM final; read-out: OR-2 Ki. As to the method: (§1) The in vitro affinity of the compounds for the human orexin-1 and orexin-2 receptors was determined by competitive radioligand binding using [^3H]SB SB674042 (1-(5-(2-fluoro-phenyl)-2-methyl-thiazol-4-yl)-1-((S)-2-(5-phenyl-(1,3,4)oxadiazol-2-ylmethyl)-pyrrolidin-1-yl)methanone) (Langmead et al., British Journal of Pharmacology 2004, 141:340-346.) and [^3H]EMPA (N-ethyl-2[(6-methoxy-pyridin-3-yl)-(toluene-2-sulfonyl)-amino]-N-pyridin-3-ylmethyl acetamide) (Malherbe et al., British Journal of Pharmacology, 2009, 156(8), 1326-1341), respectively.
Sequence of human orexin-2 receptor (O43614 whole entry): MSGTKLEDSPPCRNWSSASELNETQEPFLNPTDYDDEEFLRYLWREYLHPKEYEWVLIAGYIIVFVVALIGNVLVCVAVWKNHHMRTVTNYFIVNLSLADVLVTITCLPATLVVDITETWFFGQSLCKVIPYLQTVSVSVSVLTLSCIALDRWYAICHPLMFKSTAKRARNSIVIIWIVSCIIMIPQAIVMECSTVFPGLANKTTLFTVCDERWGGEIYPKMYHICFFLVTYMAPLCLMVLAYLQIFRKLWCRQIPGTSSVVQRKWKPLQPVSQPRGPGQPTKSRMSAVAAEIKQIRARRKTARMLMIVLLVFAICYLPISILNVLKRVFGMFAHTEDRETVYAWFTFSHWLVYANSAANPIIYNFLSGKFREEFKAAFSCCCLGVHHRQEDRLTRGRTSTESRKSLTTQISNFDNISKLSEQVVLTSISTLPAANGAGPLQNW
Human Orexin 2 Receptor Radioligand Binding Studies
HEK293 stably expressing human orexin-2 receptor (Genebank accession number NM_001526) were grown to confluency in DMEM/F12 (Gibco, Cat #11039), in DMEM, 10% FBS, 1× Pen/Strep, 1× NaPyruvate, 1×HEPES, 600 ug/ml G418 media on 150 cm^2 tissue culture plates, washed with 5 mM EDTA in PBS (HyClone Dulbecco's Phosphate Buffered Saline 1× with Calcium and Magnesium, Cat #SH30264.01, hereafter referred to simply as PBS) and scraped into 50 ml tubes. After centrifugation (2K xG, 10 min at 4° C.), the supernatant was aspirated and the pellets frozen and stored at −80° C. Cells were resuspended in PBS in the presence of 1 tablet of protease inhibitor cocktail (Roche, Cat. #11836145001) per 50 mL. […] Competition binding experiments in 96 well polypropylene plates were performed using [^3H]-EMPA (Moravek Corporation, specific activity=27 Ci/mmol), diluted to a […] concentration in PBS (5 nM final concentration). Compounds were solubilized in 100% DMSO (Acros Organics, Cat. #61042-1000) and tested over a range of 7 concentrations (from 0.1 nM to 10 μM). The final concentration of DMSO in the reactions is equal to or less than 0.1%. Total and nonspecific binding was determined in the absence and presence of 10 μM (N-[2-(3,4-dimethoxyphenyl)ethyl]-N-methylnaphthalene-1-carboxamide, CAS Registry #1089563-88-1). The total volume of each reaction is 200 μL (20 μL of diluted compounds, 80 μL of [^3H]-EMPA diluted in PBS and 100 μL of the cell suspension). Reactions were run for 60 min at room temperature and terminated by filtration through GF/C filter plates (PerkinElmer, Cat. #6005174) presoaked in 0.3% polyethylenimine using the cell harvester (Perkin Elmer Filtermate). The plates were washed 3 times by aspirating 30 ml PBS through the plates. Plates were dried in 55° C. oven for 60 min, scintillation fluid was added, and the radioactivity was counted on a Topcount (Packard).

The target in assay [2] is human orexin 1 receptor (Homo sapiens (Human), UniProt O43613). In words: Human orexin 1 receptor radioligand binding ([3H]-SB674042 competition). As to conditions: CHO cells stably expressing human orexin 1 receptor; [3H]-SB674042 4 nM final; read-out: OR-1 Ki. The protocol:
as §1
Human Orexin 1 Receptor Radioligand Binding Studies
Chinese ovary cells (CHO) stably expressing human orexin 1 receptor (Genebank accession number NM_001526) were grown to confluency in DMEM/F12 (Gibco, Cat #11039), 10% FBS, 1× Pen/Strep, 600 μg/mL G418 media on 150 cm^2 tissue culture plates, washed with 5 mM EDTA in PBS (HyClone Dulbecco's Phoshpate Buffered Saline 1× with Calcium and Magnesium, Cat #SH30264.01, hereafter referred to simply as PBS) and scraped into 50 ml tubes. After centrifugation (2K xG, 10 min at 4° C.), the supernatant was aspirated and the pellets frozen and stored at −80° C. Cells were resuspended in PBS in the presence of 1 tablet of protease inhibitor cocktail (Roche, Cat. #11836145001) per 50 mL. […] Compounds were solubilized in 100% DMSO (Acros Organics, Cat. #61042-1000) and tested over a range of 7 concentrations (from 0.1 nM to 10 μM). The final concentration of DMSO in the reactions is equal to or less than 0.1%. Total and nonspecific binding was determined in the absence and presence of 10 μM (1-(6,8-difluoro-2-methylquinolin-4-yl)-3-[4-(dimethylamino)phenyl]urea, CAS Registry #288150-92-5). The total volume of each reaction is 200 μL (20 μL of diluted compounds, 80 μL of [^3H]-SB674042 diluted in PBS and 100 μL of the cell suspension). Reactions were run for 60 min at room temperature and terminated by filtration through GF/C filter plates (PerkinElmer, Cat. #6005174) presoaked in 0.3% polyethylenimine using the cell harvester (PerkinElmer Filtermate). The plates were washed 3 times by aspirating 30 ml PBS through the plates. Plates were dried in 55° C. oven for 60 min, scintillation fluid was added, and the radioactivity was counted on a Topcount (Packard).

Broadly, the Ki is a measure of affinity in units of concentration, obtained from inhibition or displacement.

Sequence of human orexin 1 receptor (O43613 whole entry): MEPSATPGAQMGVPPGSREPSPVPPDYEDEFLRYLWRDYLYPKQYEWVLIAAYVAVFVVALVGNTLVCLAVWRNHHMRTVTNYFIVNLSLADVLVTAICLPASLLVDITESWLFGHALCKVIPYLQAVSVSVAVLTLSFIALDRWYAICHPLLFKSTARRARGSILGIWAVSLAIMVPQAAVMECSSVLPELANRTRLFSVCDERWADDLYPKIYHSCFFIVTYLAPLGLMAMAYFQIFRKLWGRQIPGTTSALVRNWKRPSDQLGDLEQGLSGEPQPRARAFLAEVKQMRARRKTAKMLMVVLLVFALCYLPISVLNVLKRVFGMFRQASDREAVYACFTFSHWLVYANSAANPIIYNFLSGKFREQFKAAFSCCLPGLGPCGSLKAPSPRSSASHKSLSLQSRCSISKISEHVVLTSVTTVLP

For the molecule `O=C(c1ccccc1-c1cccs1)N1C[C@@H]2CN(c3nccc(-c4ccccc4)n3)[C@@H]2C1` (single isomer, unassigned) [Example 55, 6-(4-Phenylpyrimidin-2-yl)-3-[(2-thiophen-2-ylphenyl)carbonyl]-3,6-diazabicyclo[3.2.0]heptane], the results for the Ki in assay [1] and in assay [2] were 92 nM and 274 nM, respectively.
Taken in the same sequence, the figures for `O=C(c1ccccc1-c1cccs1)N1C[C@H]2CN(c3nccc(-c4ccccc4)n3)[C@H]2C1` (single isomer, unassigned) [Example 56, 6-(4-Phenylpyrimidin-2-yl)-3-[(2-thiophen-2-ylphenyl)carbonyl]-3,6-diazabicyclo[3.2.0]heptane] were 129 nM and 55 nM.
In the same order, the values of `Cc1cc(C)nc(N2C[C@@H]3CCN(C(=O)c4ccccc4-c4cccs4)C[C@@H]32)n1` [Example 1, (1R,6S)[8-(4,6-Dimethyl-pyrimidin-2-yl)-3,8-diaza-bicyclo[4.2.0]oct-3-yl]-(2-thiophen-2-yl-phenyl)-methanone] are 4 nM and 64 nM.
`Cc1cc(C)nc(N2C[C@@H]3CCN(C(=O)c4ccccc4-c4ccco4)C[C@@H]32)n1` [Example 2, (1R,6S)[8-(4,6-Dimethyl-pyrimidin-2-yl)-3,8-diaza-bicyclo[4.2.0]oct-3-yl]-(2-furan-2-yl-phenyl)-methanone]: in assay [1], the Ki came out at 4 nM.
As to `Cc1cc(C)nc(N2C[C@@H]3CCN(C(=O)c4ccccc4-c4ccccc4)C[C@@H]32)n1` [Example 3, (1R,6S)-Biphenyl-2-yl-[8-(4,6-dimethyl-pyrimidin-2-yl)-3,8-diaza-bicyclo[4.2.0]oct-3-yl]-methanone], the inhibition constant (Ki) in assay [1] stood at 8 nM; in assay [2], 169 nM.
In the case of `O=C(c1ccccc1-c1cccs1)N1CC[C@H]2CN(c3cnc4ccccc4n3)[C@H]2C1` [Example 4, (1R,6S)(8-Quinoxalin-2-yl-3,8-diaza-bicyclo[4.2.0]oct-3-yl)-(2-thiophen-2-yl-phenyl)-methanone], the Ki in assay [1] came to 7 nM.
As for `O=C(c1ccccc1-c1ccco1)N1CC[C@H]2CN(c3cnc4ccccc4n3)[C@H]2C1` [Example 6, (1R,6S)(2-Furan-2-yl-phenyl)-(8-quinoxalin-2-yl-3,8-diaza-bicyclo[4.2.0]oct-3-yl)-methanone], the figures for the Ki in assay [1] and in assay [2] were 20 nM and 18 nM, respectively.
For `Cc1cc(C)nc(N2C[C@@H]3CCN(C(=O)c4ccccc4-n4cccc4)C[C@@H]32)n1` [Example 7, (1R,6S)[8-(4,6-Dimethyl-pyrimidin-2-yl)-3,8-diaza-bicyclo[4.2.0]oct-3-yl]-(2-pyrrol-1-yl-phenyl)-methanone], the inhibition constant Ki in assay [1] came to 15 nM; in assay [2], 371 nM.
Taken in the same sequence, the figures for `O=C(c1ccccc1-c1ccccc1)N1CCC2CN(c3nccc(-c4ccccc4)n3)C2C1` (stereo not shown) [Example 9, Biphenyl-2-yl-[8-(4-phenyl-pyrimidin-2-yl)-3,8-diaza-bicyclo[4.2.0]oct-3-yl]-methanone] were 33 nM and 22 nM.
In the same order, the values of `Cc1ccc(-c2ccccc2C(=O)N2CC[C@H]3CN(c4cnc5ccccc5n4)[C@H]3C2)cc1` [Example 10, (1R,6S)(4′-Methyl-biphenyl-2-yl)-(8-quinoxalin-2-yl-3,8-diaza-bicyclo[4.2.0]oct-3-yl)-methanone] are 44 nM and 18 nM.
Regarding `CCOc1ccc2ccccc2c1C(=O)N1CC[C@H]2CN(c3nc(C)cc(C)n3)[C@H]2C1` [Example 24, (1R,6S)[8-(4,6-Dimethyl-pyrimidin-2-yl)-3,8-diaza-bicyclo[4.2.0]oct-3-yl]-(2-ethoxy-naphthalen-1-yl)-methanone], in assay [1], the inhibition constant Ki was determined as 6 nM.
On to `Cc1cc(C)nc(N2C[C@@H]3CCN(C(=O)c4ccccc4-n4nccn4)C[C@@H]32)n1` [Example 25, (1R,6S)-[8-(4,6-Dimethyl-pyrimidin-2-yl)-3,8-diaza-bicyclo[4.2.0]oct-3-yl]-(2-[1,2,3]triazol-2-yl-phenyl)-methanone], for which the Ki in assay [2] was found to be 416 nM.
On to `O=C(c1cc(F)ccc1-c1ncccn1)N1CC[C@H]2CN(c3cnc4ccccc4n3)[C@H]2C1` [Example 33, (1R,6S)(5-Fluoro-2-pyrimidin-2-yl-phenyl)-(8-quinoxalin-2-yl-3,8-diaza-bicyclo[4.2.0]oct-3-yl)-methanone], for which the Ki in assay [1] is 51 nM.
For the molecule `Cc1cc(C)nc(N2C[C@@H]3CCN(C(=O)c4cc(F)ccc4-n4nccn4)C[C@@H]32)n1` [Example 41, (1R,6S)-[8-(4,6-Dimethyl-pyrimidin-2-yl)-3,8-diaza-bicyclo[4.2.0]oct-3-yl]-(5-fluoro-2-[1,2,3]triazol-2-yl-phenyl)-methanone], in assay [2], the Ki came out at 441 nM.
On to `Cc1cc(N2C[C@@H]3CCN(C(=O)c4cc(F)ccc4-n4nccn4)C[C@@H]32)nc(C(F)(F)F)n1` [Example 42, (1R,6S)-(5-Fluoro-2-[1,2,3]triazol-2-yl-phenyl)-[8-(6-methyl-2-trifluoromethyl-pyrimidin-4-yl)-3,8-diaza-bicyclo[4.2.0]oct-3-yl]-methanone], for which the inhibition constant Ki in assay [1] is 34 nM.
For the molecule `Cc1cc(N2C[C@@H]3CCN(C(=O)c4ccc(F)cc4-n4nccn4)C[C@@H]32)nc(N(C)C)n1` [Example 45, (1R,6S)-[8-(2-Dimethylamino-6-methyl-pyrimidin-4-yl)-3,8-diaza-bicyclo[4.2.0]oct-3-yl]-(4-fluoro-2-[1,2,3]triazol-2-yl-phenyl)-methanone], the Ki in assay [2] was 697 nM.
The same measure, in the same setting: under `Cc1nccnc1N1C[C@@H]2CCN(C(=O)c3cc(F)ccc3-n3nccn3)C[C@@H]21` [Example 107, (1R,6S)-3-{[5-Fluoro-2-(2H-1,2,3-triazol-2-yl)phenyl]carbonyl}-8-(3-methylpyrazin-2-yl)-3,8-diazabicyclo[4.2.0]octane] stands 10000 nM.
As to `Cc1nccnc1N1C[C@@H]2CCN(C(=O)c3cccc(F)c3-n3nccn3)C[C@@H]21` [Example 109, (1R,6S)-3-{[3-Fluoro-2-(2H-1,2,3-triazol-2-yl)phenyl]carbonyl}-8-(3-methylpyrazin-2-yl)-3,8-diazabicyclo[4.2.0]octane], the Ki in assay [1] came out at 10000 nM.
`COc1cnc(C)nc1C(=O)N1CC[C@H]2CN(c3nc(C)cc(C)n3)[C@H]2C1` [Example 136, (1R,6S)-8-(4,6-Dimethylpyrimidin-2-yl)-3-[(5-methoxy-2-methylpyrimidin-4-yl)carbonyl]-3,8-diazabicyclo[4.2.0]octane]: the Ki in assay [2] is 10000 nM.
For the molecule `Cc1cc(C)nc(N2C[C@@H]3CCN(C(=O)c4ccccc4-c4ncn[nH]4)C[C@@H]32)n1` [Example 172, (1R,6S)-8-(4,6-Dimethylpyrimidin-2-yl)-3-{[2-(1H-1,2,4-triazol-5-yl)phenyl]carbonyl}-3,8-diazabicyclo[4.2.0]octane], in assay [1], the inhibition constant Ki worked out at 48 nM.

The values are drawn from patent US8680275B2, “Fused heterocyclic compounds as orexin receptor modulators” (Janssen Pharmaceutica NV, priority 2009, dated 2014).
